# Test results taken from patent US20150273055A1, “METHODS AND COMPOSITIONS FOR EXPANDING HEMATOPOIETIC STEM AND PROGENITOR CELLS” (UNIVERSITY OF ROCHESTER, priority 2012, published 2015).
# Entries after “also recorded” stand apart in the source; their conditions may differ.
# Assays:
# trabecular bone = assay: Micro-CT analysis of trabecular bone; format: in vivo, mice
# Method: The limbs were scanned on a Viva CT 40 (Scanco Medical, Bruttisellen, Switzerland) using a 55-kVp, 145-uA current and a 300-ms integration time with a resolution of 12.5 μm. Trabecular analysis was conducted on a 1.25-mm region 50 μm above the growth plate in the femur and a 625-μm 50 um below the growth plate in the tibia. Cortical analysis was conducted 4.375 mm above/below the growth plate of the femur/tibia for a distance of 375 μm.
# Due to the dramatic induction of osteoblastic VEGF-A observed in the setting of PTH stimulation, the functional relevance of this signal in multiple aspects of BM microenvironmental activation was analyzed.
# CD105+ mesenchymal cells = assay: Flow cytometry of CD105+/Endoglin+ CD45− bone marrow mesenchymal cells; format: in vivo, C57B1/6 mice; conditions: bevacizumab with PTH(1-34) or vehicle, 10 days
# Method: When administered to a live animal, pimonidazole-HCl precipitates in cells containing<14 μM oxygen or pO2<10 mm Hg and can be detected immunohistochemically. […] FIG. 7A is a schematic of VEGF-blocking experiment. […] FIG. 7B is a graph showing frequency of CD31+ Sca1+ bone marrow endothelial cells isolated from C57B1/6 mice treated as indicated. FIG. 7C is a graph showing frequency of
# CD105+/Endoglin+ CD45− non-hematopoietic bone marrow mesenchymal cells isolated from C57B1/6 mice treated as indicated. *P<0.05, **P<0.01
# LSKs = assay: Growth and survival of LSKs cultured in cytokine-supplemented media; format: cell-based, mice; conditions: increasing concentrations of αVEGF
# [1] = system: CD31+ Sca1+ BM endothelial cells; assay: Flow cytometry of CD31+ Sca1+ bone marrow endothelial cells; format: in vivo, mice; conditions: for PTH-mediated expansion of BM endothelial cells: bevacizumab 0.7 mg/kg once per day with PTH thrice per day 10 days, vs PTH alone
# Method: (§1) All drugs were administered by intraperitoneal injection. Following 10 days of treatment, mice were sacrificed (on the morning of the eleventh day) and samples were harvested. Hindlimb bone marrow samples were used to generate the data for FIG. 8A as well as for the competitive transplantation of whole bone marrow. Hindlimb bone marrow was harvested by crushing the right hindlimb of each mouse individually using a sterile mortar and pestle in 2.5 mL phosphate buffered saline, filtered through a 40 um cell strainer and placed on ice. For flow cytometric analysis, fresh, filtered bone marrow cells were subjected to a red blood cell lysis procedure using ammonium chloride and then prepared for flow cytometry by staining with a panel of fluorescently-conjugated antibodies recognizing markers of hematopoietic stem and progenitor cells. Samples were then run on an LSR-II 12 color flow cytometer and data was analyzed using TreeStar's FlowJo software. Statistics between treatment groups were analyzed by student's T test.
# (§2) Methods of administration and analysis of the effects of PTH either alone or in combination are described above. To determine whether bone anabolic, HSPC-expanding regimens of PTH stimulation alter the vascular niche, mice were first treated intensively with PTH and the hindlimb BM vasculature was analyzed. PTH increased BM vascular structures per hindlimb section (femur and tibia) by histomorphometric analysis (FIG. 9A) as well as the area occupied by vasculature measured within the tibial metaphysis (FIG. 9B). To clarify whether intensive PTH treatment was vasodilatory to existing vessels or increasing de novo endothelial structures, BMCs of PTH-treated mice were analyzed phenotypically by flow cytometry (FIG. 9D). Intensive PTH treatment expanded populations of BM endothelial cells defined by this immunophenotyic signature (FIG. 9E). […] This expansion of small BM blood vessels was also observed in close association with both trabecular and cortical bone when CD31 immunostaining was examined in the BM (FIG. 9E). The PTH-induced increase in endothelial structures was accompanied by an increase in perivascular α smooth muscle actin (αSMA+) (FIG. 9F), indicating a concomitant increase in perivascular, HSPC supportive stromal cells.
# [2] = system: hematopoietic stem and progenitor cells (HSPCs); assay: Flow cytometric analysis of bone marrow HSPCs from treated mice; format: in vivo, C57B1/6 mice; conditions: for PTH-induced expansion of phenotypic and functional BM HSPCs: αVEGF in combination with PTH
# Method: as §1, with “test. […]” for “test.”
# HSPCs = assay: Competitive transplantation of whole BM into lethally irradiated recipient mice; format: in vivo, C57B1/6 mice; conditions: primary recipients of treated donor BM
# Method: Competitive transplantation of these cells was performed using a 4:1 donor to competitor cell ratio where the competitor was a C57B1/6 wildtype CD45.2-expressing male mouse and the recipient mice (10 mice per experimental group) were also C57B1/6 wildtype CD45.2-expressing male mice (6-8 weeks of age) that had been conditioned with a split dose of 10 Gray total body irradiation. Cell cocktails (containing the 4:1 ratio donor to competitor whole bone marrow cells) were transplanted into recipients by retro-orbital injection. Recipient mice were placed on a diet containing sulfatrim prior to the transplant and for 1 month post transplantation. Peripheral blood samples were collected at 3 weeks post transplant by bleeding from the sub-mandibular venous plexus into EDTA-containing microtainer blood tubes. Blood was then separated in order to isolate an enriched sample of mononuclear cells using PBS and dextran separation. Mononuclear cells were subjected to red blood cell lysis and then prepared for flow cytometry using a panel of antibodies recognizing B, T and myeloid cells as well as CD45.1 and CD45.2. Samples were then run on an LSR-II 12 color flow cytometer and data was analyzed using TreeStar's FlowJo software. Statistics between treatment groups were analyzed by student's T test. […]
# osteolineage cells = assay: Angiogenic signals (FGF2, Vegfa) in marrow and osteolineage cells of treated mice; format: in vivo
# Method: FGF2 is another angiogenic signal within the BM. In contrast to the effects of VEGF-A on endothelial permeability and migration, FGF2 enforces vascular stability. To determine whether osteoblastic activation by PTH can remodel the BM vasculature through the action of multiple angiogenic signals or VEGF-A alone, FGF2 changes in the marrow of PTH-stimulated mice were analyzed. Indeed, increased endosteal-associated FGF2 in hindlimb BM of mice treated with TID PTH, with a localization pattern similar to that of VEGF was observed. Moreover, FGF2 expression levels were increased within osteolineage cells isolated from TID PTH mice (FIG. 10E).
# Immunoreactive VEGF-A and FGF2 were both very high along endosteal surfaces of the hindlimb BM cavity following PTH as compared to control treatment.
# [3] = system: osteoblastic UMR106 cells; assay: In vitro PTH stimulation of osteoblastic UMR106 cells; format: cell-based
# Method: (§3) To determine if PTH increases osteoblast-derived VEGF-A, in vitro PTH stimulation experiments were performed on two osteoblastic cell lines. […] Osteoblastic differentiation was observed through maturational changes in gene expression of Collagen1, Osteocalcin and Pth1r and the ability to form mineralized bone nodules. […] To test whether PTH could directly induce VEGF-A in primary mouse osteoblastic cells as it could in osteoblastic cell lines, mouse bone marrow stroma was harvested and cultured in osteoblastic maturation media prior to stimulation with PTH at specific points throughout differentiation. Again, osteoblastic differentiation was monitored through analysis of Collagen1, Osteocalcin and Pth1r expression as well as by the formation of mineralizing bone nodules.
# OBs = assay: PTH stimulation of OBs in vitro; format: cell-based
# [4] = system: mouse calvarial MC3T3 cells; assay: In vitro PTH stimulation of MC3T3 cells during osteoblastic differentiation; format: cell-based
# Excerpt: Osteoblasts (OBs) and the bone marrow (BM) vasculature constitute hematopoietic stem and progenitor cell (HSPC) niches. OB-activation by Parathyroid Hormone (PTH) expands HSPCs through the BM microenvironment. Activation of osteoblasts through systemic PTH treatment or expression of a constitutively active PTH1 receptor (PTH1R) increases trabecular bone and expands HSPCs in the bone marrow. To test if the vasculature is modulated by PTH, it was first assessed whether PTH expands BM endothelial structures. In a murine model of HSPC-expanding PTH treatment, PTH increased microvessels and vascular area in hindlimb histology (FIG. 3A, 3B and 3E-3H). […] To determine if PTH expands BM vasculature by increasing proangiogenic signals, VEGF-A was analyzed in PTH-stimulated BM. […] To establish whether PTH directly stimulates osteoblastic Vegfa expression, mouse calvarial MC3T3 cells were treated with PTH at various stages of osteoblastic maturation. […] The magnitude of induction increased throughout osteoblastic differentiation. […]
# To determine if PTH increases osteoblast-derived VEGF-A, in vitro PTH stimulation experiments were performed on two osteoblastic cell lines. […] Again, osteoblastic differentiation was monitored through analysis of Collagen1, Osteocalcin and Pth1r expression as well as by the formation of mineralizing bone nodules.
# BM vasculature = assay: Histomorphometric analysis of hindlimb bone marrow vasculature after PTH treatment; format: in vivo, mice; conditions: PTH treatment vs vehicle
# Excerpt: Osteoblasts (OBs) and the bone marrow (BM) vasculature constitute hematopoietic stem and progenitor cell (HSPC) niches. OB-activation by Parathyroid Hormone (PTH) expands HSPCs through the BM microenvironment. Activation of osteoblasts through systemic PTH treatment or expression of a constitutively active PTH1 receptor (PTH1R) increases trabecular bone and expands HSPCs in the bone marrow. To test if the vasculature is modulated by PTH, it was first assessed whether PTH expands BM endothelial structures. In a murine model of HSPC-expanding PTH treatment, PTH increased microvessels and vascular area in hindlimb histology (FIG. 3A, 3B and 3E-3H). […] To determine if PTH expands BM vasculature by increasing proangiogenic signals, VEGF-A was analyzed in PTH-stimulated BM. […]
# (§4) Methods of administration and analysis of the effects of PTH either alone or in combination are described above. To determine whether bone anabolic, HSPC-expanding regimens of PTH stimulation alter the vascular niche, mice were first treated intensively with PTH and the hindlimb BM vasculature was analyzed. PTH increased BM vascular structures per hindlimb section (femur and tibia) by histomorphometric analysis (FIG. 9A) as well as the area occupied by vasculature measured within the tibial metaphysis (FIG. 9B). […]
# [5] = system: vessels larger than 20 um in diameter; assay: Vascular micro-CT of vessels larger than 20 um in diameter; format: in vivo, mice; conditions: vascular uCT, TID PTH
# Excerpt: FIGS. 3A-3H are graphs (FIGS. 3A-3G) and pictures (FIG. 3H) showing PTH increases bone marrow microvascularity. FIG. 3A is a graph showing histomorphometric analysis of bone marrow microvascular structures per hindlimb section (femur and tibia). FIG. 3B is a graph showing histomorphometric analysis of bone marrow vascular area, measured within a region of interest in the tibial metaphysis. FIG. 3C is a graph showing frequency of CD31+ Sca1+ bone marrow endothelial cells following TID PTH treatment. FIG. 3D is a graph showing frequency of CD31+ Sca1+ bone marrow endothelial cells isolated from CollcaPTH1R-expressing mice (TG) or wildtype littermates (WT). […]
# as §4, with “9B). To clarify whether intensive PTH treatment was vasodilatory to existing vessels or increasing de novo endothelial structures, BMCs of PTH-treated mice were analyzed phenotypically by flow cytometry (FIG. 9D).” for “9B).”
# VEGF-A = assay: Immunohistochemical staining for VEGF-A in hindlimb BM; format: in vivo; conditions: PTH-treated mice vs vehicle, endosteal/bone surfaces
# Excerpt: Osteoblasts (OBs) and the bone marrow (BM) vasculature constitute hematopoietic stem and progenitor cell (HSPC) niches. OB-activation by Parathyroid Hormone (PTH) expands HSPCs through the BM microenvironment. Activation of osteoblasts through systemic PTH treatment or expression of a constitutively active PTH1 receptor (PTH1R) increases trabecular bone and expands HSPCs in the bone marrow. To test if the vasculature is modulated by PTH, it was first assessed whether PTH expands BM endothelial structures. In a murine model of HSPC-expanding PTH treatment, PTH increased microvessels and vascular area in hindlimb histology (FIG. 3A, 3B and 3E-3H). […] To determine if PTH expands BM vasculature by increasing proangiogenic signals, VEGF-A was analyzed in PTH-stimulated BM. […] To establish whether PTH directly stimulates osteoblastic Vegfa expression, mouse calvarial MC3T3 cells were treated with PTH at various stages of osteoblastic maturation. […] The magnitude of induction increased throughout osteoblastic differentiation. […] Bevacizumab blunted PTH-mediated expansion of phenotypic BM ECs when bevacizumab and PTH treatment was compared to PTH alone.
# To determine whether the PTH-dependent increase in BM microvascularity is due to local induction of proangiogenic signals, immunostaining for candidate angiogenic factors already implicated in marrow endothelial signaling was performed.
# [6] = system: primary mouse osteoblastic cells; assay: PTH stimulation of primary mouse osteoblastic cells from bone marrow stroma; format: cell-based
# Method: as §3
# [7] = system: BM blood vessels and perivascular stromal cells; assay: CD31 and αSMA immunostaining in the BM; format: in vivo, mice; conditions: PTH
# Method: as §2
# [8] = αVEGF during TID PTH, effect on the effects of PTH
# [9] = αVEGF, baseline or PTH-enhanced
substance,measurement,setting,value
bevacizumab: anti-VEGF-A monoclonal antibody bevacizumab (referred to as αVEGF); humanized monoclonal antibody,connectivity density of the trabecular bone,trabecular bone; [8],augment
same,number of bony trabeculae,trabecular bone; [8],augment
same,bone anabolic action of PTH,trabecular bone; αVEGF in combination with PTH,without blocking
same,trabecular bone volume,trabecular bone; [9],did not significantly alter
same,trabecular spacing,trabecular bone; [9],did not significantly alter
same,CD105+ mesenchymal cells,CD105+ mesenchymal cells,does not reduce
same,growth and survival of LSKs,LSKs,not significantly affected
same,PTH-mediated expansion of BM endothelial cells,[1]; listed as Bevacizumab,blunted
same,PTH-mediated expansion of BM endothelial cells,[1]; listed as anti-VEGF therapy,blocks
same,PTH-mediated expansion of BM endothelial cells,[1]; listed as αVEGF,significantly decreased
same,"PTH-mediated expansion of HSCs (Flt3−, CD48−, CD150+ LSKs)",[2]; VEGF inhibition with PTH,did not diminish
same,HSPCs,[2]; anti-VEGF therapy with or without PTH,expands
same,PTH-induced expansion of multipotent progenitor/short term repopulating HSPCs (MPP/ST-HSPCs),[2]; bevacizumab and PTH vs PTH alone,augmented
same,PTH-induced expansion of phenotypic and functional BM HSPCs,[2],further increased
same,PTH-induced expansion of phenotypic and functional BM HSPCs,[2]; listed as anti-VEGF-A treatment,augments
same,"Flt3+, CD48−, CD150− LSKs",[2]; αVEGF in the setting of PTH,trend towards an increase
same,"hematopoietic lineage−, Sca1+, c-kit+ cells (LSKs)",[2]; αVEGF in the setting of PTH,trend towards an increase
same,"Flt3+, CD48−, CD150− LSKs",[2]; αVEGF treatment alone,expanded
same,"hematopoietic lineage−, Sca1+, c-kit+ cells (LSKs)",[2]; αVEGF treatment alone,expanded
Parathyroid hormone (1-34) [PTH],trabecular bone,trabecular bone; systemic PTH treatment,increases
same,multilineage hematopoietic reconstitution,HSPCs,transiently increased
same,endosteal-associated FGF2 in hindlimb BM,osteolineage cells; TID PTH,increased
same,FGF2 expression levels within osteolineage cells,osteolineage cells; cells isolated from TID PTH mice,increases
same,Vegfa expression in osteolineage bone-associated cells,osteolineage cells; cells isolated from mice treated with PTH,increases
same,VEGF-A protein secretion,[3]; by six hours post PTH-stimulation,increase
same,Vegfa expression,"[3]; two hours post PTH stimulation, n=3, p=0.0055",8.500±1.320 fold change above baseline
same,FGF2 in OBs in vitro,OBs,simultaneously increased
same,expression of VEGF-A in OBs in vitro,OBs,increased
same,secreted VEGF-A protein,[4],increased; also recorded: robust
same,Vegfa expression,[4]; throughout osteoblastic differentiation,strongly induced; also recorded: induced
same,BM microvessels / vascular structures per hindlimb section (femur and tibia),BM vasculature,increased
same,vascular area (tibial metaphysis),BM vasculature,increased
same,"vessel frequency, density or volume",[5],no increase
same,VEGF-A protein staining in BM,VEGF-A,increased along bone surfaces; also recorded: strongly increased; also recorded: global increase
same,CD31+ Sca1+ BM endothelial cells,[1]; PTH treatment vs vehicle,increased; also recorded: expanded
same,HSPCs in the bone marrow,[2]; systemic PTH treatment,expands
same,soluble VEGF-A protein secreted into the culture media,[6]; PTH treatment,a significant effect of PTH treatment was not detected
same,Vegfa mRNA levels,[6]; as early as four hours post PTH treatment of maturing osteoblastic cells,increased
same,perivascular α smooth muscle actin (αSMA+),[7],increase
same,small BM blood vessels (CD31 immunostaining) associated with trabecular and cortical bone,[7],expansion
